From patent publication US7179825B2, “Retinoic acid mimetic anilides” (Janssen Pharmaceutica N.V., priority 1997, dated 2007) come the findings set out here.

Molecules are shown by their SMILES. Some results are limits rather than exact numbers.

In this assay the test system is Ovariectomized rats. Briefly: Vaginal keratinization test on ovariectomized rats (Example C.2). The settings on record: estradiol undecylate induced keratinization, per os once daily on days 1-3, active dose = 50% of rats show complete suppression. Type of assay: in vivo. An excerpt:
The property to delay the metabolism of retinoic acid can be evidenced in various in vitro and in vivo experiments. A particular in vitro procedure is described in example C.1 and tests the inhibitory activity of the compounds of formula (I) on the metabolism of retinoic acid in human breast cancer cells. The compounds of the present invention were also effective in suppressing induced vaginal keratinization effects in ovariectomized rats as is described in example C.2.
“Vaginal Keratinization Test on Ovariectomized Rats”
Ovariectomized rats were injected subcutaneously with a sesame oil solution containing 100 μg of estradiol undecylate in a volume of 0.1 ml per 100 g body weight and control animals were injected with sesame oil. On day one, two and three, test animals were treated once daily with a per os dose of the test compound and control animals with the drug vehicle (PEG 200). One day after the last treatment, the animals were sacrificed and their vaginas were processed for histological evaluation according to the method described in J. Pharmacol. Exp. Ther. 261(2), 773–779 (1992). A dose at which 50% of the tested rats show complete suppression of the estradiol undecylate induced keratinization effects is defined as an active dose. Table 23 lists the lowest active dose (LAD in mg/kg) of the compounds of formula (I) which were tested.
Consider `C/C(=C\c1ccccc1)C(=O)Nc1ccc(C(C(C)N(C)C)n2cncn2)cc1` (single isomer, unassigned) [Compound 632], for which the “LAD (lowest active dose)” value is above 2.50 mg/kg.

In the case of `COc1ccc(CC(=O)N(C)c2ccc(C(C(C)N(C)C)n3cncn3)cc2)cc1OC` (single isomer, unassigned) [Compound 438], the “LAD (lowest active dose)” value is reported as above 2.50 mg/kg.

As to `CCOc1ccc(CCC(=O)Nc2ccc(C(C(CC)CC)n3ccnc3)cc2)cc1` (single isomer, unassigned) [Compound 62], the “LAD (lowest active dose)” value is given as above 5.00 mg/kg. As to `CC(C(c1ccc(NC(=O)Cc2ccc3c(c2)OCCO3)cc1)n1ccnc1)N(C)C` (single isomer, unassigned) [Compound 338], the “LAD (lowest active dose)” value was above 2.50 mg/kg. In the case of `COc1cc(CC(=O)Nc2ccc(C(C(C)N(C)C)n3ccnc3)cc2)ccc1Cl` (single isomer, unassigned) [Compound 310], the “LAD (lowest active dose)” value is recorded as 2.50 mg/kg. Take `COc1ccc(CC(=O)Nc2ccc(C(C(C)N(Cc3ccccc3)Cc3ccccc3)n3ccnc3)cc2)cc1OC` (single isomer, unassigned) [Compound 419]: the “LAD (lowest active dose)” value is listed as above 5.00 mg/kg. As for `CCCCOc1ccc(CC(=O)Nc2ccc(C(C(C)N(C)C)n3ccnc3)cc2)cc1` (single isomer, unassigned) [Compound 320], the “LAD (lowest active dose)” value amounted to 5.00 mg/kg.

In the case of `CC(C(c1ccc(NC(=O)Cc2ccc3c(c2)OCO3)cc1)n1cncn1)N(C)C` (single isomer, unassigned) [Compound 325], the “LAD (lowest active dose)” value was determined as 2.50 mg/kg.

Turning to `COc1cc(CC(=O)Nc2ccc(C(C(C)N(C)C)n3ccnc3)cc2)ccc1C` (single isomer, unassigned) [Compound 315], the “LAD (lowest active dose)” value is listed as above 2.50 mg/kg. As to `CC(C(c1ccc(NC(=O)N2CCN(C)CC2)cc1)n1ccnc1)N(C)C` (single isomer, unassigned) [Compound 347], the “LAD (lowest active dose)” value was above 5.00 mg/kg. In the case of `COc1ccc(CC(=O)Nc2ccc(C(C(C)N(C)C)n3ccnc3)cc2)cc1Cl` (single isomer, unassigned) [Compound 304], the “LAD (lowest active dose)” value is recorded as above 2.50 mg/kg. Then `Cc1cc(CC(=O)Nc2ccc(C(C(C)N(C)C)n3ccnc3)cc2)cc(C)c1C` (single isomer, unassigned) [Compound 308], with above 2.50 mg/kg. Then `COc1ccc(CCC(=O)Nc2ccc(C(C(C)N(C)C)n3cncn3)cc2)cc1OC` (single isomer, unassigned) [Compound 328], with above 2.50 mg/kg; and `CCC(CC)C(c1ccc(NC(=O)CN(C)C)cc1)n1ccnc1` (stereo not drawn) [Compound 55], with above 2.50 mg/kg.

Consider `COc1ccc(NC(=O)Nc2ccc(C(C(C)N(C)C)n3cncn3)cc2)cc1OC` (single isomer, unassigned) [Compound 717], for which the “LAD (lowest active dose)” value is recorded as above 2.50 mg/kg. For `CCC(CC)C(c1ccc(NC(=O)c2ccccc2)cc1)n1cncn1` (stereo not drawn) [Compound 3], the “LAD (lowest active dose)” value is given as above 2.50 mg/kg. Then `COc1ccc(CC(=O)N(C)c2ccc(C(C(C)N(C)C)n3ccnc3)cc2)cc1OC` (single isomer, unassigned) [Compound 439], with above 2.50 mg/kg; and `CC(=O)Nc1ccc(C(C(C)N(C)C)n2cncn2)cc1` (racemic) [Compound 631, (±)-(B)-N-[4-[2-(dimethylamino)-1-(1H-1,2,4-triazol-1-yl)propyl]phenyl]acetamide], with above 2.50 mg/kg; and `CCOC(=O)CC(c1ccc(NC(C)=O)cc1)n1ccnc1` (stereo not drawn) [Compound 560], with above 5.00 mg/kg. On to `CC(C(c1ccc(NC(=O)Cc2ccc(Cl)cc2)cc1)n1cncn1)N(C)C` (single isomer, unassigned) [Compound 785], for which the “LAD (lowest active dose)” value worked out at 5.00 mg/kg. With `COc1ccc(CCCC(=O)Nc2ccc(C(C(C)N(C)C)n3cncn3)cc2)cc1OC` (single isomer, unassigned) [Compound 329], the “LAD (lowest active dose)” value is above 2.50 mg/kg.

In the case of `CC(C(c1ccc(NC(=O)Oc2ccccc2)cc1)n1ccnc1)N(C)C` (single isomer, unassigned) [Compound 343], the “LAD (lowest active dose)” value is reported as above 2.50 mg/kg. Consider `CCCCCC(CC)C(c1ccc(NC(=O)C(C)=Cc2ccccc2)cc1)n1ccnc1` (single isomer, unassigned) [Compound 494], for which the “LAD (lowest active dose)” value is on record as above 2.50 mg/kg. With `COc1ccc(CC(=O)Nc2ccc(C(C(C)CO)n3ccnc3)cc2)cc1OC` (racemic) [Compound 386, (±)-(A)-3,4-dimethoxy-N-[4-[1-(1H-imidazol-1-yl)-2-(hydroxymethyl)propyl]phenyl]benzeneacetamide], the “LAD (lowest active dose)” value is recorded as above 2.50 mg/kg.

As to `COc1ccc(CC(=O)Nc2ccc(C(CN(C)C)n3ccnc3)cc2)cc1OC` (stereo not drawn) [Compound 380], the “LAD (lowest active dose)” value was above 2.50 mg/kg.

With `CCN(C)C(C)C(c1ccc(NC(C)=O)cc1)n1ccnc1` (mixture of isomers) [Compound 566], the “LAD (lowest active dose)” value is listed as 5.00 mg/kg. Turning to `COc1ccc(C(=O)Nc2ccc(C(C(C)N(C)C)n3cncn3)cc2)cc1OC` (single isomer, unassigned) [Compound 327], the “LAD (lowest active dose)” value is above 2.50 mg/kg. For the molecule `CC(C(c1ccc(NC(=O)Cc2ccc(N(C)C)cc2)cc1)n1ccnc1)N(C)C` (single isomer, unassigned) [Compound 317], the “LAD (lowest active dose)” value was above 5.00 mg/kg. As to `CC(C(c1ccc(NC(=O)Cc2ccc(Cl)cc2)cc1)n1cncn1)N(C)C` (single isomer, unassigned) [Compound 283], the “LAD (lowest active dose)” value came to 2.50 mg/kg.

For `CCOc1ccc(CCC(=O)Nc2ccc(C(C(C)N(C)C)n3ccnc3)cc2)cc1` (stereo not drawn) [Compound 348], the “LAD (lowest active dose)” value is above 2.50 mg/kg. Then `CC(=O)Nc1ccc(C(C(C)N(C)C)n2ccnc2)cc1` (single isomer, unassigned) [Compound 552], with above 2.50 mg/kg. In the case of `CN(C)CC(c1ccc(NC(=O)N2CCN(C)CC2)cc1)n1ccnc1` (racemic) [Compound 436], the “LAD (lowest active dose)” value was above 5.00 mg/kg. Regarding `COc1cc(CC(=O)Nc2ccc(C(C(C)N(C)C)n3cncn3)cc2)cc(OC)c1OC` (single isomer, unassigned) [Compound 630], the “LAD (lowest active dose)” value is above 2.50 mg/kg.

Turning to `CC(C(c1ccc(NC(=O)Cc2ccc(Cl)cc2)cc1)n1cncn1)N(C)C` (single isomer, unassigned) [Compound 628], the “LAD (lowest active dose)” value is above 2.50 mg/kg. As to `CCC(CC)C(c1ccc(NC(=O)C(O)c2ccc(Cl)cc2)cc1)n1cncn1` (single isomer, unassigned) [Compound 20], the “LAD (lowest active dose)” value is 2.50 mg/kg. Take `COc1ccc(C(=O)Nc2ccc(C(CN(C)C)n3ccnc3)cc2)cc1OC` (racemic) [Compound 434]: the “LAD (lowest active dose)” value is above 2.50 mg/kg. For the molecule `COc1cc(CC(=O)Nc2ccc(C(C(C)N(C)C)n3ccnc3)cc2)cc(OC)c1OC` (single isomer, unassigned) [Compound 302], the “LAD (lowest active dose)” value is listed as above 2.50 mg/kg. Regarding `CCOC(=O)C(C)C(c1ccc(NC(=O)Cc2ccc(OC)c(OC)c2)cc1)n1ccnc1` (single isomer, unassigned) [Compound 381], the “LAD (lowest active dose)” value is reported as above 2.50 mg/kg. Turning to `CCCCN(C)C(C)C(c1ccc(NC(C)=O)cc1)n1ccnc1` (mixture of isomers) [Compound 562], the “LAD (lowest active dose)” value is 5.00 mg/kg.
